The results in this text go back to US7091351B2, “Vanadium compounds for treating cancer” (Parker Hughes Institute, priority 1998, dated 2006).

Common to all, as to format: cell-based, human
In assay [1] the test system is NALM-6 cells. Nature of the assay: MTT cytotoxicity assay of oxovanadium(IV) compounds, NALM-6. To be noted: 48 hr. The method in brief: (§1)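 Tumour cells in log growth are seeded, then incubated 48 hours with compound spanning 0.1 to 250 μM. Viable cells reduce MTT (0.5 mg/ml final, 4 hours) to formazan, which is measured at 540 nm and translated to cell number via standard curves for each line.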

Assay [2] relates to MOLT-3 cells. Nature of the assay: MTT cytotoxicity assay of oxovanadium(IV) compounds, MOLT-3. The following applies: 48 hr. Summed up:
as §1

Assay [3] relates to U266BL multiple myeloma cells. The experiment in a line: MTT cytotoxicity assay of oxovanadium(IV) compounds, U266BL. The following applies: 48 hr. Summed up:
as §1
(In general: Formazan colour is commonly taken as a measure of viable cells.)

The test system of assay [4] is HS-SULTAN multiple myeloma cells. The experiment in a line: MTT cytotoxicity assay of oxovanadium(IV) compounds, HS-SULTAN. To be noted: 48 hr. The method in brief: as §1
The test system of assay [5] is NALM-6 leukemia cells. The experiment in a line: Mitochondrial transmembrane potential, DiIC1 staining, flow cytometry. On the procedure:
[…] Mitochondrial membrane potential (ΔΨm) was measured using two dyes including a lipophollic cation 5,5′,6,6′-tetrachloro-1,1′,3,3′-tetraethlybenzimidazolylcarbocyanine iodide (JC-1; Molecular probes, Eugene, Oreg.) and a cyanine dye, 1,1′,3,3,3′,3′-hexamethylindodicarbocyanine iodide [DiIC1(5); Molecular probes] as earlier described (22). JC-1 can enter the cells, and selectively mitochondria, and has been used to assess ΔΨm in a variety of studies (23,24). JC-1 is a monomer at 527 nm after being excited at 490 nm; with polarization of ΔΨm, J-aggregates are formed that shift emission to 590 nm (23, 24). This can be detected on a flow cytometer by assessing the green signal (at 527 nm) and green-orange signal (at 590 nm) simultaneously, creating an index of the number of cells polarized and depolarized mitochondria. The treated and control cells were washed and plated in a 6-well plate at 1×10^6 cells in fresh medium. JC-1 was added at a concentration of 10 μg/ml, and cells were incubated for 10 min in the dark at room temp. Cells were then washed twice with ice-cold PBS and immediately analyzed using Becton Dickinson (San Jose, Calif.) Calibur flow cytometer. At least 2×10^3 cells were analyzed to determine the percentage of cells with polarized and depolarized mitochondria. DiIC1(5), a cyanine dye is amphioatheic and cationic that concentrate in energized mitochondria and has been used in a variety of studies to measure the mitochondrial membrane potential (25–27). NALM-6 cells were stained with DiIC1(5) at 40 nM concentration for 30 min in the dark as described for JC-1. The cells were analyzed using Vantage Becton Dickinson cell sorter equipped with HeNe laser with excitation at 635 nm and the fluorescence was collected at 666 nm.

Assay [6] has as its system NALM-6 cells. Nature of the assay: Mitochondrial mass determination, NAO staining. The following applies: 0.1-1 μM, 24-96 hr. As for the experimental part: Relative mitochondrial mass was measured by using Becton Dickinson Calibur flow cytometry and the fluorescent stain 10-n-nonyl-acridine orange (NAO), which binds the mitochondrial phospholipid cardiolipin, that has been extensively used to provide an index of mitochondrial mass (28). 1×10^6 compound 29-treated NALM-6 cells at concentrations of 0.1 μM to 1 μM for 24 hr, 48 hr, 72 hr, or 96 hr were incubated with 30 μM of NAO in complete medium for 10 min at room temp in the dark, washed with ice-cold PBS and analyzed using log scale photomultiplier to detect the green fluorescence at 527 nm. Relative change in the mitochondrial mass was measured using the mean fluorescence value of mitochondria of compound 29-treated and vehicle-treated cells.

The test system of assay [7] is HS-SULTAN cells. The experiment in a line: In situ detection of apoptosis, confocal microscopy, HS-SULTAN. The following applies: 48 hours after treatment. As for the experimental part:
Exponentially growing cells were seeded in 6-well tissue culture plates and incubated with fresh medium containing compounds. […] The cells were fixed in 2% paraformaldehyde, washed with PBS and pelleted by centrifuging the tubes at 1000 rpm for 5 min. Cells pellets were resuspended in 50 μl of PBS, transferred to superforst plus slides and allowed to attach for 15 min. The cells were permeabilized with 0.1% triton X-100 in 0.1% citrate buffer and incubated for 1 hr at 37° C. with the reaction mixture containing terminal deoxynucleotidyl transferase (TdT) and fluorescein isothiocyanate (FITC)-conjugated dUTP. Cells were washed with PBS to remove unbound reagents and the coverslips were mounted onto slides with Vectashield containing propidium iodide (Vector Labs, Burlingame, Calif.) and slides were viewed with a confocal laser scanning microscope. […] In control reactions, the TdT enzyme was omitted from the reaction mixture.

Assay [8] concerns BT-20 breast cancer cells. The experiment in a line: Immunofluorescence (anti-α-tubulin / toto-3) morphology, BT-20. The following applies: 25 μM, 48-72 hr. On the procedure:
In some experiments, immunofluorescence was used to examine the morphologic features of vanadocene-treated cancer cells. At the end of the indicated treatment period, cells were washed twice with PBS and fixed in 2% paraformaldehyde. The cells were permeabilized and non-specific binding sites were blocked with 2.5% BSA in PBS containing 0.1% Triton X-100 for 30 min. Tubulin expression was examined by immunofluorescence using a monoclonal antibody against α-tubulin (Sigma Chemical Co, St. Louis, Mo.) at a dilution of 1:1000 and an anti-mouse IgG conjugated to FITC. Cells were washed in PBS and counterstained with toto-3 (Molecular Probes Inc., Eugene, Oreg.) for 10 min at a dilution of 1:1000. Cells were washed again with PBS and the coverslips were mounted with Vectashield (Vector Labs, Burlingame, Calif.) and viewed with a confocal microscope (Bio-Rad MRC 1024) mounted in a Nikon Labhophot upright microscope. Digital images were saved on a Jaz disk and processed with Adobe Photoshop software (Adobe Systems, Mountain View, Calif.).

Where two headings read alike, the source gives them in different places.

In the case of “bis(4,7-dimethyl-1,10-phenanthroline)sulfatooxovanadium(IV) [Compound 29]”, the IC50 (commonly the point on the concentration scale where inhibition reaches its midpoint) was 0.2 ± 0.03 µM in assay [1], 0.19 ± 0.01 µM in assay [2], 0.5 ± 0.02 µM in assay [3] and 0.8 ± 0.05 µM in assay [4]. In addition, the “fraction of DiIC1-negative cells with depolarized mitochondria” value in assay [5] (1 μM, 48 hours (vehicle 6.5%)) stood at 91.5%. Besides, the concentration for a half-maximal effect (EC50) – broadly, the midpoint of the concentration-response curve – was determined as 3.6 µM in assay [5] (24 hr treatment, read-out: average EC50 for depolarization of mitochondria (decreased DiIC1 staining), 24 hr); 0.3 µM in assay [5] (48 hr treatment, read-out: average EC50 for depolarization of mitochondria (decreased DiIC1 staining), 48 hr); 0.08 µM in assay [5] (72 hr treatment, read-out: average EC50 for depolarization of mitochondria (decreased DiIC1 staining), 72 hr). The “mitochondrial mass (NAO staining intensity, treated versus untreated)” value in assay [6] is recorded as “virtually identical staining intensity of NAO”. For the same compound, the “apoptotic nuclei (FITC-dUTP / propidium iodide), HS-SULTAN” value in assay [7] is listed as “many apoptotic yellow nuclei”.
Consider `[Cl-].[Cl-].[V+4].c1cc[cH-]c1.c1cc[cH-]c1` [VDC, VCp2Cl2], for which, in assay [8], the “morphological features of BT-20 cells” value was “complete disruption of microtubules”.
